Assay results reported in patent publication US20240207402A1, “MEANS AND METHODS FOR ENHANCING RECEPTOR-TARGETED GENE TRANSFER” (Deutsches Krebsforschungszentrum Stiftung des öffentlichen …, priority 2021, published 2024).

Assays:
[1] = tested on: activated PBMC; assay: Comparison of tyrosine kinase inhibitors on targeted LV transduction of activated PBMC; type: cell-based, human; settings: 5 h; for effect of TKI on transduction by targeted LVs: 50 nM dasatinib, 1 μM imatinib or 30 μM genistein
[2] = tested on: activated PBMC; assay: Transduction of fully activated PBMC with targeted LVs in presence of dasatinib (GFP expression, flow cytometry); type: cell-based, human
[3] = tested on: activated PBMC; assay: Vector titers (transducing units/mL) on activated PBMC; type: cell-based, human
Method: Transduction was additionally promoted by the transduction enhancer VF-1. Culture medium without dasatinib and Vectofusin-1 was used for control transductions. Transgene expression in T-cells was evaluated 3 and 7 days post transduction by flow cytometry. […] After spinfection, 100 μL of fresh media, either containing the different dasatinib concentrations or without dasatinib, was added and the cells were cultured at 37° C. The medium was changed to fresh TCM with IL-2 or IL-7/15 without dasatinib 3 h, 5 h or 7 h after start of incubation with dasatinib. The cells were further cultured at 37° C., and analyzed for transgene expression 3-4 and 7 days post transduction by flow cytometry. Vector titers were determined in transducing units per milliliter (T U/mL) from LV dilutions showing linear correlation to the number of transgene-positive cells and calculated using following equation.

[4] = tested on: freshly isolated PBMC exposed solely to IL-7/15; type: cell-based, human
[5] = tested on: CD25; type: cell-based, human
[6] = tested on: activated PBMC; type: cell-based, human
[7] = tested on: CD19+Nalm-6 cells; type: cell-based, human; settings: effector:target 0.5:1
[8] = tested on: Nalm-6 cells; type: cell-based, human
[9] = tested on: activated PBMC; assay: Binding of CD3-targeted LVs to activated PBMC (anti-His staining); type: cell-based, human; settings: 100 nM dasatinib, 7 h and 24 h after start of treatment
Method: To understand the mechanism behind the transduction enhancing characteristic of dasatinib, fully activated PBMC were incubated with CD3-targeted LVs, as described above, and analyzed via flow cytometry 7, 24 and 72 h after start of incubation with dasatinib and transduction. Cells were stained with anti-His-PE, allowing the detection of L. Vs bound to the cells.

[10] = tested on: human whole blood; type: cell-based; settings: 100 nM dasatinib, five to six days
[11] = tested on: splenocytes isolated from huNSG mice; type: cell-based, humanized NSG mice; settings: CD3-LV(GFP), 50 or 100 nM dasatinib 5 h, three days post transduction
[12] = tested on: human CD3 receptor; type: cell-based; settings: 50 or 100 nM dasat., three days post transduction
[13] = tested on: CD45+ cells isolated from blood; assay: In vivo transduction in PBMC-humanized NSG mice; settings: 10 mg/kg dasatinib i.p. one hour prior to CD3-LV i.v., seven days, not statistically significant
Method: For humanization, 1×10^7 ex vivo activated PBMC were transplanted by intravenous (i.v.) tail-vein injection into 8 week old mice. Humanization levels were measured and used for grouping of the mice by flow cytometry from blood taken eleven days post PBMC injection. The following day, 10 mg/kg dasatinib diluted in vehicle (4% DMSO, 33.3% PEG-300, 5% Tween80, 57.7% ddH20) was intraperitoneally (i.p.) administered to the mice, one hour prior to CD3-LV i.v. injection. The animals were sacrificed seven days post vector administration. Blood, spleen and bone marrow were collected and single cell 35 suspensions were prepared and analyzed by flow cytometry. Additionally, genomic DNA was isolated from the single cell suspension and used for vector copy number (VCN) analysis using quantitative polymerase chain reaction (qPCR).

[14] = tested on: activated PBMC
[15] = tested on: freshly isolated PBMC exposed solely to IL-7/15; settings: 100 nM dasatinib, day 4 and 7

SMILES: O=c1c(-c2ccc(O)cc2)coc2cc(O)cc(O)c12 [genistein]
- effect of TKI on transduction by targeted LVs [1]: slight increase

SMILES: Cc1nc(Nc2ncc(C(=O)Nc3c(C)cccc3Cl)s2)cc(N2CCN(CCO)CC2)n1 [dasatinib, N-(2-Chloro-6-methylphenyl)-2-[[6-[4-(2-hydroxyethyl)-1-piperazinyl]-2-methyl-4-pyrimidinyl]amino]-5 thiazolecarboxamide]
- GFP-expression, TR66-LV in presence of dasatinib [2]: 30%
- T-cells transduced by CD3-LVs in presence of dasatinib [2]: up to 70%
- effect of pretreatment on cell-directed gene transfer using CD3-LVs [2]: dramatically increases
- effect on CD4-LV transduction [2]: slight increase
- effect on transduction by CD8-LV and VSV-LV [2]: not affected
- increase in transduction (maximum in this setup) [2]: 3 fold
- increase in transduction compared to untreated cells [2]: 1.6 fold
- increase in transduction compared with Vectofusin-1 [2]: even stronger than by the transduction enhancer Vectofusin-1
- less transduction after short incubation compared to longer incubation time [2]: 10-35%
- stability of gene transfer [2]: remained stable
- transduction enhancement at lowest concentration [2]: not sufficient to enhance transduction
- transduction for TR66-LV, VF-1 added in presence of dasatinib [2]: ~70%
- increase of titers of CD3-LV(CAR) in presence of dasatinib ([3]; CD19 CAR, three days post transduction): 3-16 fold
- titers of CD3-LV(GFP) in presence of dasatinib ([3]; with dasatinib): 1e7-1e8 T.U./mL
- TR66-LV mediated gene transfer, VF-1 added to dasatinib-treated cells ([4]; IL-7/15 only PBMC, 100 nM dasatinib plus VF-1): 10%
- improvement of CD3-LV transduction of cytokine-only stimulated T-cells ([4]; in presence of dasatinib (summary)): 7 fold
- CD25-expression upon activating antibodies or CD3-LVs in presence of dasatinib [5]: did not cause an increase
- CAR transduction in presence of VF-1 with dasatinib [6]: 13%
- CAR-expression, CD3-LV transduced cells, dasatinib present [6]: up to 10%
- tumor killing (dead target cells) by CAR T cells generated in presence of dasatinib ([7]; 4 h): around 40%
- Nalm-6 cells killed by CD19-CAR T cells ([7]; 24 h): nearly all
- overall CAR expression compared to untreated cells ([8]; 50 nM dasatinib during transduction with CD3-LV(CAR)): increased
- target cell killing by CAR T cells generated in presence of dasatinib ([8]; 50 nM dasatinib, day 2 up to day 8, 1:1 ratio): complete target cell killing
- CAR T cell exhaustion and phenotype markers dependent on dasatinib treatment ([8]; day 8 of the killing assay): no difference
- amount of CD3-LVs bound to the cells [9]: substantially increased
- increase of transgene expression, transduction with CD3-LV ([1]; 50 nM dasatinib or 1 μM bosutinib, GFP three days post transduction): ~4 fold
- effect of TKI on transduction by targeted LVs [1]: strongest increase
- GFP-expression of CD3+ cells, CD3-LV in presence of dasatinib [10]: above 2%
- GFP expression of CD45+ splenocytes in presence of dasatinib [11]: around 25%
- MFI of the CD3 receptor in presence of CD3-LV and dasatinib [12]: only slightly reduced
- GFP-expression and vector integration in genomic DNA of blood cells in vivo [13]: clear tendency
- viability in presence of dasatinib compared to untreated cells ([14]; activated PBMC, 100 nM dasatinib, day 3 and 7): not compromised
- viability of the cells at high dasatinib concentration ([14]; dasatinib concentrations above 50 nM, 3 days post transduction): dropped slightly
- cell viability of non-activated cells [15]: did not negatively affecT-cell viability

SMILES: Cc1ccc(NC(=O)c2ccc(CN3CCN(C)CC3)cc2)cc1Nc1nccc(-c2cccnc2)n1 [imatinib, 4-[(4-Methylpiperazin-1-yl)methyl]-N-{4-methyl-3-[(4-pyridin-3˜ ylpyrimidin-2-yl)amino]phenyl}benzamid]
- effect of TKI on transduction by targeted LVs [1]: did not lead to an increase
